Experimental data as given in patent US20240132449A1, “HETEROCYCLIC COMPOUNDS AND METHODS OF USE THEREOF” (1cBio, Inc., priority 2022, published 2024).
Where a name gives a salt, the structure may show the parent alone.

The compounds below were run against PARP1 (Homo sapiens, UniProt P09874) (assay: PARP1 fluorescence polarization binding assay). Details: binding IC50, GST-tagged PARP1 20 nM, PARPi-FL 3 nM.
Description: Compounds of the present disclosure were tested in a PARP1 fluorescence polarization binding assay at Pharmaron (Beijing, P.R.China). In this biochemical assay, binding of test compound to recombinant human PARP1 reduces the amount of binding of a fluorescent probe, and consequently reduces the detected level of fluorescence polarization. Test compound stock solutions were prepared in DMSO and then serially diluted into 10 concentrations by 3-fold dilution in a 384-well plate using a TECAN EVO200. 60 nL of each dilution was transferred to the plate using an Echo550 (Labcyte), and then 10 μL 40 nM GST-tagged PARP1 (BPS Bioscience, Cat #80501), diluted in assay buffer (50 mM Tris pH 8.0, 0.001% Triton X-100, 10 mM MgCl2, 150 mM NaCl), was added to the plate. After a centrifugation at 1000 rpm for 1 min, the assay plate was incubated for 30 min at RT. 10 μL 6 nM PARPi-FL (TOCRIS, Cat #6461), diluted using assay buffer, was then added to the plate. The final concentrations of PARP1 and PARPi-FL were 20 nM and 3 nM, respectively, in a total volume of 20 μL. After a centrifugation at 1000 rpm for 1 min, the assay plate was incubated for 4 h at RT. Samples in each well were read using an Envision instrument (Perkin-Elmer; Ex=480 nm Em=FITC FP-P pol 535 nm & FITC FP-S pol 535 nm). Percent inhibition was calculated from mP values using Inhibition (%)=[1−(mPc−mPL)/(mPH−mPL)]×100%, where mPc, mPL, and mPH are the mP values of test compound, Low controls, and High controls, respectively. Binding IC50 values were calculated using XLFit (equation 201: y=A+((B−A)/(1+((x/C)^D))), where A=bottom, B=top, C=IC50, and D=slope) with a floating top and bottom for curves. Binding IC50 values are shown in Table A and are presented in ranges, in which “+++”<100 nM, 100 nM≤“++”<3000 nM, and “+”≥3000 nM.

Sequence of PARP1 (P09874 whole entry): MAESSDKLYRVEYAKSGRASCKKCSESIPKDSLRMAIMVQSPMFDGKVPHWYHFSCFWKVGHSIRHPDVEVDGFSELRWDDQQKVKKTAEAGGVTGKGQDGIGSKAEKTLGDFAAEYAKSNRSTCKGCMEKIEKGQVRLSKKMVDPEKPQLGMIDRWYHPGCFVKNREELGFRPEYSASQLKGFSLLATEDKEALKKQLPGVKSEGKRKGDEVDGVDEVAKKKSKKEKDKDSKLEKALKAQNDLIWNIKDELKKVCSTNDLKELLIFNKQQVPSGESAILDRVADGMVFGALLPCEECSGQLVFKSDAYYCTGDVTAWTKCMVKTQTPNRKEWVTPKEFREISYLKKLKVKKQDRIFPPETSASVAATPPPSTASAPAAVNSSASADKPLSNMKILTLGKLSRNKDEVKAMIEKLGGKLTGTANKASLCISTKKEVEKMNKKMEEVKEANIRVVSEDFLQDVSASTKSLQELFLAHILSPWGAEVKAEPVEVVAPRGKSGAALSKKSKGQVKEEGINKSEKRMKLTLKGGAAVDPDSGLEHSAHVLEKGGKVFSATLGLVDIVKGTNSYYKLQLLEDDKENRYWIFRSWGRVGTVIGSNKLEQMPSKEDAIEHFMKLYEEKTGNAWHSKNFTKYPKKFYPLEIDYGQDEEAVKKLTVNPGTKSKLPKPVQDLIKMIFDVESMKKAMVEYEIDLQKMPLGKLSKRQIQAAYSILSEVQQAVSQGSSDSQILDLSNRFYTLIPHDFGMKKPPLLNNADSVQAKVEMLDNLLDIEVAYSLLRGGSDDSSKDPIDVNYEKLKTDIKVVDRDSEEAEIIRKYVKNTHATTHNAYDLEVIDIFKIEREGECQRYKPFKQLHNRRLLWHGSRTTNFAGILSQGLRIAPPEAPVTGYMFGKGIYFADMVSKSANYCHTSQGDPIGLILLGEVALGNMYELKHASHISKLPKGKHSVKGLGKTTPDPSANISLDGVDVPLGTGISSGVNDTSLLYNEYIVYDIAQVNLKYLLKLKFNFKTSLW

IC50, 100 to 3000 nM:
CCn1c(=O)[nH]c2cc(CN3CC(Oc4ccc(C(=O)NC)nc4C)C3)sc2c1=O [Compound 328]

IC50, < 100 nM:
CCn1c(=O)[nH]c2cc(CN3CCN(c4ccc(C(=O)NC)nc4C)CC3=O)sc2c1=O [Compound 305, 5-(4-((3-ethyl-2,4-dioxo-1,2,3,4-tetrahydrothieno[3,2-d]pyrimidin-6-yl)methyl)-3-oxopiperazin-1-yl)-N,6-dimethylpicolinamide]
CCn1c(=O)[nH]c2sc(CN3CCN(c4ccc(C(=O)NC)nc4C)CC3)cc2c1=O [Compound 186]
CCn1c(=O)[nH]c2cc(CN3CCN(c4ccc(C#N)cn4)CC3)sc2c1=O [Compound 531]
CCn1c(=O)[nH]c2cc(CN3CCN(c4ccc(-c5ncc[nH]5)nc4C)CC3)sc2c1=O [Compound 357, 64(4-(6-(1H-imidazol-2-yl)-2-methylpyridin-3-yl)piperazin-1-yl) methyl)-3-ethylthieno[3,2-d]pyrimidine-2,4(1H,3H)-dione formate]
CCn1c(=O)[nH]c2cc(CN3CCN(c4ccc(NC(C)=O)nc4C)CC3)sc2c1=O [Compound 528, N-(5-(4-((3-ethyl-2,4-dioxo-1,2,3,4-tetrahydrothieno[3,2-d]pyrimidin-6-yl)methyl)piperazin-1-yl)-6-methylpyridin-2-yl)acetamide]
CCn1c(=O)[nH]c2cc(CN3CCN(c4ccc(-n5cccn5)nc4C)CC3)sc2c1=O [Compound 306, 3-ethyl-6-({4-[2-methyl-6-(pyrazol-1-yl)pyridin-3-yl]piperazin-1-yl}methyl)-1H-thieno[3,2-d]pyrimidine-2,4-dione]
CCn1c(=O)[nH]c2sc(CN3CCN(c4ccc(C(=O)NC)nc4F)CC3)cc2c1=O [Compound 530, 5-(4-((3-ethyl-2,4-dioxo-1,2,3,4-tetrahydrothieno[2,3-d]pyrimidin-6-yl)methyl)piperazin-1-yl)-6-fluoro-N-methylpicolinamide bis formate]

IC50, > 3000 nM:
CCn1c(=O)[nH]c2cc(CN3CCN(c4ccc(CNC)nc4C)CC3)sc2c1=O [Compound 529, 3-ethyl-6-((4-(2-methyl-6-((methylamino)methyl)pyridin-3-yl)piperazin-1-yl)methyl)thieno[3,2-d]pyrimidine-2,4(1H,3H)-dione]
CCn1c(=O)[nH]c2cc(CN3CCN(c4ccc(C(=O)N5CCCC5)nc4C)CC3)sc2c1=O [Compound 526, 3-ethyl-6-[(4-{2-methyl-6-[(pyrrolidin-1-yl)carbonyl]pyridin-3-yl}piperazin-1-yl)methyl]-1H-thieno[3,2-d]pyrimidine-2,4-dione]
